Assay results: publication PMC3091225 (The Journal of Biological Chemistry, 2011)

Columns and labels:
Assay in all cases: direct fluorescence titration of TBG into fluorophore
Type in all cases: binding
[1] = target: T1, TBG (wild-type, native, intact reactive loop) (Homo sapiens, UniProt P05543)
T1 sequence (P05543 21-415): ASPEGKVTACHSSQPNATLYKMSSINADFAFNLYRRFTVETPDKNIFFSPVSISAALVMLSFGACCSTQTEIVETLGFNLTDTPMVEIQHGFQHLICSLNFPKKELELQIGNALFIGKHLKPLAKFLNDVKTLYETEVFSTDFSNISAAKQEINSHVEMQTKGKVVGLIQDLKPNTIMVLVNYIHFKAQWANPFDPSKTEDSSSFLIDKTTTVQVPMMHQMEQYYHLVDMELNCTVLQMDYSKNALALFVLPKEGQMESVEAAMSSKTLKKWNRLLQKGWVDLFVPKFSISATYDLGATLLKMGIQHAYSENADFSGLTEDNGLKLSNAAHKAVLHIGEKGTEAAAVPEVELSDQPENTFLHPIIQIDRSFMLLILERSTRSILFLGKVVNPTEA

[2] = target: T2, TBG (wild-type, native, intact reactive loop) (Homo sapiens, UniProt P05543, DEL124-126/K123A)
T2 sequence (P05543 with tags, fused parts or gaps K123A/DEL124-126): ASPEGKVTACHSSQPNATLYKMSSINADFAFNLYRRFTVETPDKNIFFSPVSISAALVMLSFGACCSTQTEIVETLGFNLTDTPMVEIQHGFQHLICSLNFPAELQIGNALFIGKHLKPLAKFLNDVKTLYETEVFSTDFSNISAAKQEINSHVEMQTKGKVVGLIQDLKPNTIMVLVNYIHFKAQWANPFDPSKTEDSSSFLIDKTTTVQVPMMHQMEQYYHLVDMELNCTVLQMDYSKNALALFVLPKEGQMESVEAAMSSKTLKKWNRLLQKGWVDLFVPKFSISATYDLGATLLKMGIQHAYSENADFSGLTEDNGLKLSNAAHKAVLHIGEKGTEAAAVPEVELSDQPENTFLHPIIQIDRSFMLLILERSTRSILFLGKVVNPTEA

[3] = target: T3, cleaved TBG (wild-type, reactive loop cleaved) (Homo sapiens, UniProt P05543, DEL124-126/K123A)
T3 sequence (P05543 with tags, fused parts or gaps K123A/DEL124-126): T2 sequence (P05543 with tags, fused parts or gaps K123A/DEL124-126)

Structure (SMILES): O=C(N[C@@H](Cc1cc(I)c(Oc2cc(I)c(O)c(I)c2)c(I)c1)C(=O)O)c1ccc2c(c1)C(=O)OC21c2ccc(O)cc2Oc2cc(O)ccc21 [T4–5-CF]
- Kd [1]: < 0.1 nM

Structure (SMILES): O=C(N[C@@H](Cc1cc(I)c(Oc2cc(I)c(O)c(I)c2)c(I)c1)C(=O)O)c1ccc2c(c1)C1(OC2=O)c2ccc(O)cc2Oc2cc(O)ccc21 [T4–6-CF]
- Kd [2]: 24.9 ± 1.8 nM
- Kd [3]: 50.7 ± 3.6 nM
